{
  "source": "patent US20230112470A1",
  "about": "“USE OF EGFR/HER2 TYROSINE KINASE INHIBITORS AND/OR HER2/HER3 ANTIBODIES FOR THE TREATMENT OF CANCERS WITH NRG1 FUSIONS” (Board of Regents, The University of Texas System, priority 2020, published 2023)",
  "data": [
    {"test_system": "MDA175-VII (NRG1-DOC4 fusion) cells", "assay": "Cell viability by Cell Titer Glo assay, 72 hours treatment", "format": "cell-based", "conditions": "72 h, read-out: Average IC50", "procedure": "(§1) FIG. 1B. Representative dose response curves of MDA175-VII (NRG1-DOC4 fusion) treated with the indicated inhibitors for 72 hours. Cell viability was determined by Cell Titer Glo Assay.\n(§2) Cell viability was determined by the Cell Titer Glo assay.\n(§3) Drug screening and IC50 determination. Drug screening is performed as previously described. Briefly, cells are plated in 384-well plates (Greiner Bio-One) at 2000-3000 cells per well in technical triplicate. Seven different concentrations of covalent EGFR/HER2 TKIs and/or HER2/HER3 targeting antibodies or DMSO vehicle are added to reach a final volume of 40 μL per well. After 72 hours, 11 μL of Cell Titer Glo (Promega) is added to each well. Plates are incubated for a minimum of 10 minutes, and bioluminescence is determined using a FLUOstar OPTIMA plate reader (BMG LABTECH). Raw bioluminescence values are normalized to DMSO control treated cells, and values are plotted in GraphPad Prism. […] Drug screens are performed in technical triplicate on each plate and either duplicate or triplicate biological replicates.", "units": {"IC50": "nM"}, "values": [
      {"molecule": "CCOc1cc2ncc(C#N)c(Nc3ccc(OCc4ccccn4)c(Cl)c3)c2cc1NC(=O)/C=C/CN(C)C", "note": "[Neratinib, neratinib]", "IC50": 0.747}
    ]},
    {"test_system": "MDA175-VII (NRG1-DOC4 fusion) cells", "assay": "Cell viability by Cell Titer Glo assay, 72 hours treatment", "format": "cell-based", "conditions": "MDA175-VII (NRG1-DOC4 fusion) cells, single HER2 inhibitor, 72 hours; read-out: Average IC50", "procedure": "as §1, §2, §3", "units": {"IC50": "nM"}, "values": [
      {"molecule": "CN(C)C/C=C/C(=O)Nc1cc2c(Nc3ccc(F)c(Cl)c3)ncnc2cc1O[C@H]1CCOC1", "note": "[Afatinib, afatinib]", "IC50": 0.891},
      {"molecule": "COc1cc2ncnc(Nc3ccc(F)c(Cl)c3)c2cc1NC(=O)/C=C/CN1CCCCC1", "note": "[Dacomitinib, dacomitinib]", "IC50": 1.18},
      {"molecule": "C#Cc1cccc(Nc2ncnc3cc(OCCOC)c(OCCOC)cc23)c1", "note": "[Erlotinib, erlotinib]", "IC50": 1440},
      {"molecule": "C=CC(=O)N1CCC[C@@H](n2nc(-c3ccc(Oc4ccccc4)cc3)c3c(N)ncnc32)C1", "note": "[Ibrutinib, ibrutinib]", "IC50": 86.9},
      {"molecule": "CS(=O)(=O)CCNCc1ccc(-c2ccc3ncnc(Nc4ccc(OCc5cccc(F)c5)c(Cl)c4)c3c2)o1", "note": "[Lapatinib, lapatinib]", "IC50": 98.6},
      {"molecule": "C=CC(=O)Nc1cc(Nc2nccc(-c3cn(C)c4ccccc34)n2)c(OC)cc1N(C)CCN(C)C", "note": "[Osimertinib, osimertinib]", "IC50": 459},
      {"molecule": "CCOc1cc2ncc(C#N)c(Nc3ccc(OCc4ccccn4)c(Cl)c3)c2cc1NC(=O)/C=C/[C@H]1CCCN1C", "note": "[Pyrotinib, pyrotinib]", "IC50": 10.4},
      {"molecule": "CNC(=O)CN1CCC(Oc2cc3c(Nc4cccc(Cl)c4F)ncnc3cc2OC)CC1", "note": "[Sapitinib, sapitinib]", "IC50": 316}
    ]},
    {"test_system": "MDA175-VII (NRG1-DOC4 fusion) cells", "assay": "Cell viability by Cell Titer Glo assay, 72 hours treatment", "format": "cell-based", "conditions": "MDA175-VII cells, anti-HER2 antibody alone (+DMSO), 72 hours; read-out: Average IC50", "procedure": "as §1, §2, §3", "units": {"IC50": "nM"}, "values": [
      {"molecule": "Pertuzumab: recombinant, humanized monoclonal antibody that inhibits dimerization of HER2", "IC50": 51.5},
      {"molecule": "T-DM1", "IC50": 653}
    ]},
    {"test_system": "MDA175-VII (NRG1-DOC4 fusion) cells", "assay": "Cell viability by Cell Titer Glo assay, 72 hours treatment", "format": "cell-based", "conditions": "MDA175-VII cells, single agent", "procedure": "as §1, §2, §3", "values": [
      {"molecule": "Pertuzumab: recombinant, humanized monoclonal antibody that inhibits dimerization of HER2", "inhibition of cell viability (in words)": "potently inhibited cell viability"}
    ]}
  ]
}
